Reference: patent US20070275969A1, “NANOPARTICLES FOR ORAL ADMINISTRATION OF PHARMACEUTICAL AGENTS OF LOW SOLUBILITY” (priority 1995, published 2007)

Columns and labels:
[1] = aqueous solubility of the active agent; format: physicochemical; details: pH 7.4
Method: (§1) Since then several types of HIV-1 protease inhibitors have become known. […] The latter effect is presently attributed to the extremely low aqueous solubility (8 mg/1000 ml at pH 7.4).

[2] = half-life in in-vivo pharmaceutical models (mouse); details: some in-vivo pharmaceutical models (mouse)
Method: as §1

oral bioavailability = details: in vivo
Method: as §1

COc1ccc(C[C@H](C[C@H](O)[C@H](Cc2ccccc2)NC(=O)OC(C)(C)C)C(=O)N[C@H](C(=O)N[C@@H](Cc2ccccc2)C(=O)N2CCOCC2)C(C)C)cc1 [HIV-1 protease inhibitor (A), 5(S)-tert.-Butoxycarbonyl-amino-4(S)-hydroxy-2(R)-4-methoxyphenylmethyl-6-phenyl-hexanoyl-(L)-Val-(L)-Phe-morpholin-4-ylamide]
aqueous solubility [1]: 8 mg/1000 ml | half-life [2]: relatively short half-life | oral bioavailability (oral bioavailability): insufficient oral bioavailability
